Read-outs that look alike come from different tables or passages of the source.

Assay [1] has as its system rat aortic ring. In words: Rat aortic ring assay (anti-angiogenic activity). It counts as cell-based. The procedure:
Final concentration of DMSO in all wells is 1%.
Statistical analysis conducted with Kruskal-Wallis Test and Dunns multiple comparisons

For assay [2], the system named is streptozotocin-induced diabetic rats. Nature of the assay: Serum/plasma triglyceride levels in streptozotocin-induced diabetic rats. It counts as in vivo, rat. To be noted: 10 mg/kg/day. Here is the method:
Tests are conducted to determine the effect of compounds on serum triglyceride levels in streptozotocin-induced diabetic rats.
Control animals receive citrate buffer.
Two hours after STZ injection, food is returned.
The nondiabetic and diabetic control groups are administered vehicle.

For assay [3], the system named is STZ treated diabetic minipigs. In words: Wound healing in STZ treated diabetic minipigs. The assay is classed as in vivo, minipig. To be noted: STZ diabetic minipigs with wounds, compared with untreated control STZ diabetic minipigs. Here is the method: STZ treated diabetic minipigs having various wounds are administered the compound of Example 3. These animals are compared with control STZ diabetic minipigs also having wounds but that are not treated with the compound. […] Accordingly, the compounds of the invention are capable of promoting wound healing in diabetic mammals.

Assay [4] relates to diabetic (db/db) mice. In words: Blood glucose lowering in diabetic (db/db) mice. The assay is classed as in vivo, mouse. To be noted: for Blood glucose: n = 12. The procedure: The mice are obese, extremely hyperglycemic and also hyperinsulinemic.
Male db/db mice (8 weeks old) were obtained from Jackson Laboratories and were allowed to acclimate for 1 week before the experiment commenced. A sample of blood was collected from the tail after which plasma glucose was isolated by centrifigation and the glucose concentration was measured in the plasma enzymatically on the COBAS automated clinical analyzer equipped with a glucose kit that utilized hexokinas to quantitate the amount of glucose in a sample (Roche Diagnostic Systems, kit #47382). Mice with the lowest plasma glucose values were removed from the study and the remaining mice were randomized according to their individual plasma glucose values into 3 treatment groups (n=12 per group), control untreated db/db mice, 100 mg/kg/d compound treated db/db mice and 300 mg/kg/d compound treated db/db mice.
Treatment with the compound was carried out for 4 weeks during which time blood glucose levels were measured weekly from the tail using the One Touch II blood glucose meter (Lifescan, Inc). The blood glucose values of mice in the compound treated groups was compared to the blood glucose values of mice from the control untreated group by an analysis of variance followed by Dunett's Comparison Test (one-tailed).

As to `O=C(O)Cn1cc(Cc2nc3c(F)c(F)cc(F)c3s2)c2ccccc21` [Example 3, 3-(4,5,7-Trifluorobenzothiazol-2-yl)methyl-indole-N-acetic Acid], the “Linear Microvascular Growth” value in assay [1] was 1.97 ± 0.66, n = 5 mm; in assay [1] (50 µM) it was 2.31 ± 0.71, n = 5 mm; in assay [1] (Prevention (Days 1-6), 50 micromolar, mean ± SD, n = 6), 1.46 ± 0.48, n = 6 mm. Further, the “Triglyceride lowering compared to diabetic” value in assay [2] (STZ diabetic rats, 10 mg/kg/d by gavage) turned out to be 68%. Besides, the Plasma triglycerides in assay [2] (po, 4 h) turned out to be 149 ± 29 mg/dL. In assay [3], the “degree of wound healing” value is on record as “significant increase in the degree of wound healing”. Also, the Blood glucose in assay [4] (100 mg/kg/d in diet, Week 0, mean ± SD) is 323 ± 79 mg/dL; in assay [4] (100 mg/kg/d in diet, Week 2, mean ± SD) it was 284 ± 75 mg/dL; in assay [4] (100 mg/kg/d in diet, Week 3, mean ± SD) it was 258 ± 60 mg/dL; in assay [4] (100 mg/kg/d in diet, Week 4, mean ± SD), 303 ± 79 mg/dL; in assay [4] (300 mg/kg/d in diet, Week 0, mean ± SD), 313 ± 52 mg/dL; in assay [4] (300 mg/kg/d in diet, Week 2, mean ± SD), 240 ± 85 mg/dL. Besides, the Blood glucose in assay [4] (300 mg/kg/d in diet, Week 3, mean ± SD) stood at 197 ± 77 mg/dL; in assay [4] (300 mg/kg/d in diet, Week 4, mean ± SD) it was 207 ± 77 mg/dL. In addition, the “mean percent change in glucose with drug treatment (lowering)” value in assay [4] (100 mg/kg/d, after four weeks) was 12%. For the same compound, the “mean percent change in glucose with drug treatment (lowering of blood glucose)” value in assay [4] (300 mg/kg/d, after four weeks) is listed as 40%.
